In ChEMBL document CHEMBL5725825, “Inhibitors of IRAK4 activity” (2017):

Biological target: T1, Interleukin-1 receptor-associated kinase 4 (Homo sapiens, UniProt Q9NWZ3)
T1 sequence (Q9NWZ3 whole entry): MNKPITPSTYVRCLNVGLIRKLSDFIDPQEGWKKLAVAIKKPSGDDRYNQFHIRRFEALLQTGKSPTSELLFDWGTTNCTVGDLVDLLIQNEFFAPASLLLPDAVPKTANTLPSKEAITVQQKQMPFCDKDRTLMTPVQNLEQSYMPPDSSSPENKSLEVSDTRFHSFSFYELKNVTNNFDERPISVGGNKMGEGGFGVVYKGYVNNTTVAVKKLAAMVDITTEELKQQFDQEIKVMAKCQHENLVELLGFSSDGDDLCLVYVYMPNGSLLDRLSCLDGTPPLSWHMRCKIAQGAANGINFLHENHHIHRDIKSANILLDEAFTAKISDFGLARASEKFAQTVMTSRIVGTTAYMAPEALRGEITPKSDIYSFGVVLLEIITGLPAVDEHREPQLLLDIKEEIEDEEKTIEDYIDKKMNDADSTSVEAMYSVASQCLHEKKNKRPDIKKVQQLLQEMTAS
Experiment: IMAP Technology: The kinase activity of IRAK4 is determined by its ability to catalyze the phosphorylation of a fluorescent polypeptide substrate. […] The reaction is initiated by the addition of ATP. After incubation for 30 minutes at 25° C., 60 μl of Progressive IMAP Reagent (Molecular Devices) is added to stop the reaction. Change in RP7030's FP is determined by a FP reader (Analyst HT, LJL BioSystems).

Compound | IC50
Cn1cc(NC(=O)c2cccc(-c3ccnc(NCC4CC4)c3)c2)c(C(N)=O)n1 | 184 nM
Cn1cc(NC(=O)c2cccc(-c3ccnc(NCC4CC4)c3)n2)c(C(=O)N2CCOCC2)n1 | 1830 nM
